One test addresses T1, α5β3γ2 GABAA receptor (Homo sapiens, UniProt P18507+P31644).
T1 construct: Full-length cDNAs for GABAA receptor subtypes are transfected into the human embryonic kidney cell line HEK-293T; expressed in transfected cells; host or cells: human mammalian cells (HEK-293T per Procedure B)
Kind of test: Electrophysiology in transfected cells (IonWorks Barracuda), PAM effect on current induced by 5 μM GABA. The class given is cell-based. How it is done: (§1) Procedure B: Full-length cDNAs for GABAA receptor subtypes are transfected into the human embryonic kidney cell line HEK-293T. All subtypes are rat clones except for α2, which is a human clone. Cells are patch-clamped at −50 mV in the whole-cell recording configuration. GABA is diluted into the bath and compounds are dissolved in DMSO and diluted into bath solution. Solutions containing GABA or GABA+ compounds are applied to cells for 5 s. Currents are recorded with an Axon 200B patch clamp amplifier. Data is normalized data current expressed as a percentage of the response to GABA alone for each cell.
(§2) Electrophysiological Characterization of GL-III-68 by Procedure B: Human mammalian cells are transfected with human […] GABAA receptors. Cells are incubated with GL-III-68 at a range of concentrations from 0.03 μM to 100 μM. Currents are induced by stimulation with 5 μM GABA and recorded using the IonWorks Barracuda® test platform. Current is normalized to the current induced by 5 μM of GABA in the absence of any allosteric modulator. PAM effect of at different subtypes of GABA^A receptor. % of current was calculated relatively to current produced by 5 μM GABA alone (set to 100%) (FIG. 21). EC50 results are shown below.
(In general: Patch clamp records ionic current or voltage across a cell membrane.)

Another test has as its target T2, α2β3γ2 GABAA receptor (Homo sapiens, UniProt P18507+P47869).
T2 construct: Full-length cDNAs for GABAA receptor subtypes are transfected into the human embryonic kidney cell line HEK-293T; expressed in transfected cells; host or cells: human mammalian cells (HEK-293T per Procedure B)
Described as above. The test is classed as cell-based. The method, then:
as §1, §2

Another test addresses T3, α3β3γ2 GABAA receptor (Homo sapiens, UniProt P18507+P34903).
T3 construct: Full-length cDNAs for GABAA receptor subtypes are transfected into the human embryonic kidney cell line HEK-293T; expressed in transfected cells; host or cells: human mammalian cells (HEK-293T per Procedure B)
The test is described as above. The class given is cell-based. The method, then: as §1, §2

Another test deals with T4, α1β3γ2 GABAA receptor (Homo sapiens, UniProt P14867+P18507).
T4 construct: Full-length cDNAs for GABAA receptor subtypes are transfected into the human embryonic kidney cell line HEK-293T; expressed in transfected cells; host or cells: human mammalian cells (HEK-293T per Procedure B)
The test is described as above. The class given is cell-based. How it is done:
as §1, §2

In test [1] the test system is C57/Bl6 mice subjected to chronic restraint stress (working memory deficit). Kind of test: Y-maze alternation task after chronic restraint stress (CRS). The test is classed as in vivo. The following applies: 10 mg/kg i.p., acute, 30 min before testing, vs CRS vehicle. How it is done:
Young Animals and chronic stress procedure: C57/Bl6 mice, males and females at 8 weeks old and are kept in normal housing conditions (12 h light ON cycle starting at 7 am/water and food ad libitum) for one week. During this week, animals are single housed and handled to reduce the anxiety-like response toward the experimenter. To induce a working memory deficit, mice are subjected to a chronic restraint stress protocol (CRS). They are placed in a 50 mL Falcon® tube, twice a day, for 1 hour during their diurnal cycle. The time of occurrence of the stress is randomized every day to avoid predictability. CRS is not applied on testing days. Y-maze test occurs 15 hours minimum after the last stressor.
Protocol: Mice are first habituated to the Y-maze apparatus and distal cues during 2 consecutive days over a 10 min free exploration session (one session per day). The next day, animals perform a training session consisting in seven successive trials separated by a 30 s inter-trial interval (ITI); during this training session, mice are familiarized with the experimental procedure (opening and closing of the doors and confinement into the goal arms). For each trial, mice remain in the start-box for a 30 s ITI. Then, the door is opened and the mouse is allowed to enter freely one of the two goal arms; the chosen arm is closed and the choice is recorded. After a 30 s confinement period into the chosen arm, the mouse is removed and brought back to the start-box for a second trial identical to the first one and this procedure is repeated over the series of trials.
The same general procedure used in the training session is implemented 24 h later, except that the ITI was lengthened to 90 s. For this experiment, animals are acutely injected i.p. with vehicle or drug, 30 minutes before the beginning of the test. To dissociate memory deficits from an eventual progressive loss of motivation to alternate over the series, an 8th trial is added to the series which is separated from the 7th trial by a shorter ITI (5 s). All animals failing to alternate at the 8th trial are excluded. The mean alternation rate is calculated and is expressed in percentage (number of alternation done by the animal/total number of alternation possible×100)±SEM. The percentage of alternation during the entire task is considered as an index of working memory performance (50% of being a random alternation rate). Factorial ANOVA is applied to the data to reveal differences between groups. If the ANOVA is significant for group effect (p<0.05), Scheffe post-hoc analysis are conducted to identify which groups are different from each other.
Drug preparation and administration: All drugs are diluted in a vehicle solution containing 85% H2O, 14% propylene glycol (Sigma Aldrich) and 1% Tween 80 (Sigma Aldrich). Working solutions are prepared at a concentration of 10 mg/mL and administered i.p. adjusted to the body weight of each animal. Doses used are either 1, 5, 10 or 20 mg/kg. For all Y maze experiments, animals are acutely injected i.p. with vehicle or drug, 30 minutes before the beginning of the test.

The structures appear in SMILES notation.

Usually EC50 stands for the concentration needed to bring the measured effect to its halfway point. Low values mean greater potency, high ones weaker potency. The term Emax denotes the maximal effect, on the per cent scale that the assay sets.

T2 sequence (P47869 29-451): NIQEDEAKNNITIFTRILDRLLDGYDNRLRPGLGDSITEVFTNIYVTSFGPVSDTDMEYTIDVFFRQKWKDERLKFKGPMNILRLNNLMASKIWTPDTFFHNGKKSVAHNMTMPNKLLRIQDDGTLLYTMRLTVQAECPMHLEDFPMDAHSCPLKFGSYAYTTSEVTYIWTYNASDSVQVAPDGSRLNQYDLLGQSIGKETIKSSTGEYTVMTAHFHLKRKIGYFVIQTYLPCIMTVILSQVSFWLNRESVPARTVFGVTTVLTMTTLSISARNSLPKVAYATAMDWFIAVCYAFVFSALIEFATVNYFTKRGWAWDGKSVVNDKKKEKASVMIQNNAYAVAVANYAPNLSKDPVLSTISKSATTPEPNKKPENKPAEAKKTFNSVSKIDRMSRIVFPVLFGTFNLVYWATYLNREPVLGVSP
T2 sequence (P28472 26-473 partner): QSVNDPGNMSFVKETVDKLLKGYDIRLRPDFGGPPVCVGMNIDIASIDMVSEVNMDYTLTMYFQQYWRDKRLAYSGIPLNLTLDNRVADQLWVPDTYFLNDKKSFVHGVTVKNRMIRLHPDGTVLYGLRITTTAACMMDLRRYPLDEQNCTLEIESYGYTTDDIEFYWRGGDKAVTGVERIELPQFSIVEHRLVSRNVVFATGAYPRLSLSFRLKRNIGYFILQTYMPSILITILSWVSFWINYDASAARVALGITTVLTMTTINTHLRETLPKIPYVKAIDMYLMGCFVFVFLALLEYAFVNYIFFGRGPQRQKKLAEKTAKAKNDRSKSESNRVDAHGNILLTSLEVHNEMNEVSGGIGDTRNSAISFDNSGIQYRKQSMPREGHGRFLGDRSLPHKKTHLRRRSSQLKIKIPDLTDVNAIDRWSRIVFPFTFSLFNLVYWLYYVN
T2 sequence (P18507 40-475): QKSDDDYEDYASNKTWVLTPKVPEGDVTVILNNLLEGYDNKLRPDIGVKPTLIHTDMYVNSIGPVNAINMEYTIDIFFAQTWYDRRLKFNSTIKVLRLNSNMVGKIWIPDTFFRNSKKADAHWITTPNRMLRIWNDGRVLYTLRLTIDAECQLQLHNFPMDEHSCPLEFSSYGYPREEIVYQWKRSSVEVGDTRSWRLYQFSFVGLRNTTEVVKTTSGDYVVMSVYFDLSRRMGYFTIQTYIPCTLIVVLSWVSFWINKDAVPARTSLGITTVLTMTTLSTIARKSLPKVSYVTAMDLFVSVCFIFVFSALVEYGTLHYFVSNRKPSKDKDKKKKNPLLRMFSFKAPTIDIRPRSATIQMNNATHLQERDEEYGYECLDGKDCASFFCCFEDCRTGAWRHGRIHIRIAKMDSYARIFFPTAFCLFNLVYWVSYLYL
T1 sequence (P31644 32-462): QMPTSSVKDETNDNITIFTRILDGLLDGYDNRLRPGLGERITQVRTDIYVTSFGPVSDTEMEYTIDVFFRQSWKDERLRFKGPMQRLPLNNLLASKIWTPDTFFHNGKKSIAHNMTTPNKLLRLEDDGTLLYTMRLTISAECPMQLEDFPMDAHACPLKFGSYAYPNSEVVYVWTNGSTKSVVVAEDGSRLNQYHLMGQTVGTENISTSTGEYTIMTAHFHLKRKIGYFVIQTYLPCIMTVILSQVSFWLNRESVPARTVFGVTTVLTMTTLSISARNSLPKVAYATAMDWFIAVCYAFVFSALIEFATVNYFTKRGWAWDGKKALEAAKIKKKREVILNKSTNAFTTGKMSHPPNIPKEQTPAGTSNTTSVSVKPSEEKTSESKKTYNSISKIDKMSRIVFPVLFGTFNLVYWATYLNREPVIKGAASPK
T1 sequence (P28472 26-473 partner): as the sequence (P28472 26-473 partner) above
T1 sequence (P18507 40-475): as the sequence (P18507 40-475) above
T3 sequence (P34903 29-492): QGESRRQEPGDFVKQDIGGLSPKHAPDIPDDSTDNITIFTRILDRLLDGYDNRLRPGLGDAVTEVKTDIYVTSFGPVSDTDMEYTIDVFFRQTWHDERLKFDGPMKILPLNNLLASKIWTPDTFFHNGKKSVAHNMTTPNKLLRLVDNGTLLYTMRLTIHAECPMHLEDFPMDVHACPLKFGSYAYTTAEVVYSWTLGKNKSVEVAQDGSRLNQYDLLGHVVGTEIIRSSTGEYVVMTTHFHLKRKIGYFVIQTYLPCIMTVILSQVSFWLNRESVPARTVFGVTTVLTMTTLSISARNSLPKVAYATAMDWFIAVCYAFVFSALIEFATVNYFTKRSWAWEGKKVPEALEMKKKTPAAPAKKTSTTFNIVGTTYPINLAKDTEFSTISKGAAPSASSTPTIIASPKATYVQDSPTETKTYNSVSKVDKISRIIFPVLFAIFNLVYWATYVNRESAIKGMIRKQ
T3 sequence (P28472 26-473 partner): as the sequence (P28472 26-473 partner) above
T3 sequence (P18507 40-475): as the sequence (P18507 40-475) above
T4 sequence (P14867 28-456): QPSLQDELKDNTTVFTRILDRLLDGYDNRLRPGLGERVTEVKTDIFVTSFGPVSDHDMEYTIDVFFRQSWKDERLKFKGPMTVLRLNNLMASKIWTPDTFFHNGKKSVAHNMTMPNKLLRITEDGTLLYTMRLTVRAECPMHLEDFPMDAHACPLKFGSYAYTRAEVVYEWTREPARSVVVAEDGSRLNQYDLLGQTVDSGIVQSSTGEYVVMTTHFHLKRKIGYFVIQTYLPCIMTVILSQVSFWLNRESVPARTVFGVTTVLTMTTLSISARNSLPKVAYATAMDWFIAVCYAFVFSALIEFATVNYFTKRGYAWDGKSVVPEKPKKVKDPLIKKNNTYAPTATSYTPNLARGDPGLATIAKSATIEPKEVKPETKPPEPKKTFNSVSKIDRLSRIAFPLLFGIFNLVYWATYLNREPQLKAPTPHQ
T4 sequence (P28472 26-473 partner): as the sequence (P28472 26-473 partner) above
T4 sequence (P18507 40-475): as the sequence (P18507 40-475) above

On to `CCNC(=O)c1ncn2c1[C@@H](C)N=C(c1ccccc1F)c1cc(C3CC3)ccc1-2` [GL-III-68, (R)-8-Cyclopropyl-N-ethyl-6-(2-fluorophenyl)-4-methyl-4H-benzo[f]imidazo[1,5-a][1,4]diazepine-3-carboxamide], for which the EC50 is less than 0.03 µM at α5β3γ2 GABAA receptor, 1.91 µM on α2β3γ2 GABAA receptor, 3.52 µM at α3β3γ2 GABAA receptor and 10.7 µM on α1β3γ2 GABAA receptor. The Emax on α5β3γ2 GABAA receptor (α5β3γ2, % of current produced by 5 μM GABA alone (set to 100%)) was found to be 188%; on α2β3γ2 GABAA receptor (α2β3γ2, % of current produced by 5 μM GABA alone (set to 100%)) it was 224%; on α3β3γ2 GABAA receptor (α3β3γ2, % of current produced by 5 μM GABA alone (set to 100%)) it was 209%; on α1β3γ2 GABAA receptor (α1β3γ2, % of current produced by 5 μM GABA alone (set to 100%)), 188%. Moreover, the “reversal of CRS-induced reduction of alternation rate (Y-maze)” value in test [1] was “reversed”.

These data come from US20240374612A1, “IMIDAZOBENZO[…] TREATMENT OF COGNITIVE AND MOOD SYMPTOMS” (UWM Research Foundation, Inc., priority 2021, published 2024).
